Experimental data reported in publication PMC12675387, “Receptor interaction profiles of 4-alkoxy-2,6-dimethoxyphenethylamines (Ψ derivatives) and related amphetamines” (Frontiers in Pharmacology, 2025).

What was measured:
hα1A adrenergic receptor = target: T1, hα1A adrenergic receptor (Homo sapiens, UniProt P35348); assay: Radioligand binding, α1A adrenergic receptor ([3H]prazosin); details: hα1A Ki ± SD
T1 sequence (P35348 1-466): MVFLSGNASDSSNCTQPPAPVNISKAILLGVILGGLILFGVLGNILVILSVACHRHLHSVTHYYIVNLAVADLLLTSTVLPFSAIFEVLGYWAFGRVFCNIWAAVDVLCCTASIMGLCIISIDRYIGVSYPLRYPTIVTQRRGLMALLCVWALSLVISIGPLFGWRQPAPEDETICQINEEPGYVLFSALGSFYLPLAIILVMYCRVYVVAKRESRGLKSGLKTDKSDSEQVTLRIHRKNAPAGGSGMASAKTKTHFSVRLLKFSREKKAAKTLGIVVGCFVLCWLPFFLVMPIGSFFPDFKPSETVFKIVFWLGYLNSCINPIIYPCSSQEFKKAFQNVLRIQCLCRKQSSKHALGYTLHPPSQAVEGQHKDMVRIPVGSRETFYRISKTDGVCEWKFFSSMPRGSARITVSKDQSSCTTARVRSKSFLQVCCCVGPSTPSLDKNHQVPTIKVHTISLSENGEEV

hNET = hNET (Homo sapiens, UniProt P23975); assay: Radioligand binding, NET (N-methyl-[3H]nisoxetine)
hNET, sequence (P23975 whole entry): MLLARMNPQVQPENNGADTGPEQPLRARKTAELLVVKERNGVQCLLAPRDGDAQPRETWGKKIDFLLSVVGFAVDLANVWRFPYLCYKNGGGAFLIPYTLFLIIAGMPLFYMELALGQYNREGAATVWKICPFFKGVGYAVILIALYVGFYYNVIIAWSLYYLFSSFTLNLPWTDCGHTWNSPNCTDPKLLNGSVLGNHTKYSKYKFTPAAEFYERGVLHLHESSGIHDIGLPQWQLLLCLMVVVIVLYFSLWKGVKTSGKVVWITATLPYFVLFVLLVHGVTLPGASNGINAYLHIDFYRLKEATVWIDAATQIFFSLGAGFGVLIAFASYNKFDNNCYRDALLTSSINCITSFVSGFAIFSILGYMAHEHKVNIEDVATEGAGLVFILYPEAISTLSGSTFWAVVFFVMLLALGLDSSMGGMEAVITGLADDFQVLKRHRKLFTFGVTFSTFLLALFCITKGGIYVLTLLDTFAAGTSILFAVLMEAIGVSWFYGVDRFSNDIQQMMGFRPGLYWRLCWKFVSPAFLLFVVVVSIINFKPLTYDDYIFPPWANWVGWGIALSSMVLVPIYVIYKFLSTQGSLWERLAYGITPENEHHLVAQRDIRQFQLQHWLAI

rTAAR1 = rTAAR1 (Rattus norvegicus, UniProt Q923Y9); assay: Radioligand binding, rat TAAR1 ([3H]RO5166017)
rTAAR1, sequence (Q923Y9 whole entry): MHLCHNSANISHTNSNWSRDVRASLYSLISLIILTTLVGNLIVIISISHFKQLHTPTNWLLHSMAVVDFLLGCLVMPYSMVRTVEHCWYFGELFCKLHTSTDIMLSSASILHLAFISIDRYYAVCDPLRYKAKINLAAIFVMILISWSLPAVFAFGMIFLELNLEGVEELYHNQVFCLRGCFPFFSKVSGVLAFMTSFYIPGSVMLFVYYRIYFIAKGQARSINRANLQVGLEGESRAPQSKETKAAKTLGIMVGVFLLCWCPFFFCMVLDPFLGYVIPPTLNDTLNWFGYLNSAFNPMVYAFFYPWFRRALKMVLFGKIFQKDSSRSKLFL

human 5-HT2B receptor = target: T2, human 5-HT2B receptor (Homo sapiens, UniProt P41595); assay: Activation potency and efficacy at the 5-HT2B receptor (Fluo-4 calcium, HEK 293 cells); assay type: cell-based; details: for Emax: HEK293, relative to 5-HT (100%), read-out: h5-HT2B activation efficacy Emax ± SD
T2 construct: expressed in transfected cells; host or cells: HEK 293 cells
T2 sequence (P41595 whole entry): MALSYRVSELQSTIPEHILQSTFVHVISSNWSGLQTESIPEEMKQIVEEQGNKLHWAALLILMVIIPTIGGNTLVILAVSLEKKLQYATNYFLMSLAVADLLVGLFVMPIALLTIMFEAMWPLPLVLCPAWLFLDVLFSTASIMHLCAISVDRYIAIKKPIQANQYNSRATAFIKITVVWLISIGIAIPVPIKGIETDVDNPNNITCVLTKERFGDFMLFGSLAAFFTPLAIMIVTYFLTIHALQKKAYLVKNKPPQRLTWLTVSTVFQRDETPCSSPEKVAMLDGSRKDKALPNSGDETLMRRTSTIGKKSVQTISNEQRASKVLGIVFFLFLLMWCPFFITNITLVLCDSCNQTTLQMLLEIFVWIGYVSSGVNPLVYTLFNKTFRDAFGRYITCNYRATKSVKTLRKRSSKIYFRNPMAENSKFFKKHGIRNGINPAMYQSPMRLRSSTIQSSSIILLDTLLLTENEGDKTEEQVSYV
Description: The activation potency and efficacy at the 5-HT2B receptor were determined as previously described by [Luethi et al. (2018)]. In summary, HEK 293 cells stably transfected with the human 5-HT2B receptor were seeded in poly-D-lysine-coated 96 well plates at a density of 50,000 cells per well overnight at 37 °C in high glucose Dulbecco’s modified Eagle’s medium (DMEM; Invitrogen, Zug, Switzerland) supplemented with 10% fetal calf serum (non-dialyzed and heat-inactivated), 250 mg/L Geneticin, and 100 U/mL penicillin, and 100 μg/mL streptomycin (Gibco). The growth medium was removed by snap inversion and the cells were exposed to 100 μL calcium indication Fluo-4-solution (Molecular Probes, Eugene, OR, United States) for 45 min at 31 °C. Thereafter, the Fluo-4-solution was removed once again by snap inversion and was replaced with fresh 100 μL Fluo-4-solution. Next, the cells were washed with HBSS and 20 mM HEPES using the EMBLA cell washer and then exposed to the assay buffer (100 μL per well). Afterwards, 25 μL of test compounds diluted in assay buffer were added to the plate online. Dose–response curves were determined using nonlinear regression and EC50 values were calculated. The activation efficacy was calculated relative to the 5-HT activity (defined as 100%).

human 5-HT2A receptor = target: T3, human 5-HT2A receptor (Homo sapiens, UniProt P28223); assay: Activation potency and efficacy at the 5-HT2A receptor (FLIPR calcium, NIH-3T3 cells); assay type: cell-based; details: for Emax: NIH3T3, relative to 5-HT (100%), read-out: h5-HT2A activation efficacy Emax ± SD
T3 construct: expressed in transfected cells; host or cells: NIH-3T3 mouse embryonic fibroblasts
T3 sequence (P28223 whole entry): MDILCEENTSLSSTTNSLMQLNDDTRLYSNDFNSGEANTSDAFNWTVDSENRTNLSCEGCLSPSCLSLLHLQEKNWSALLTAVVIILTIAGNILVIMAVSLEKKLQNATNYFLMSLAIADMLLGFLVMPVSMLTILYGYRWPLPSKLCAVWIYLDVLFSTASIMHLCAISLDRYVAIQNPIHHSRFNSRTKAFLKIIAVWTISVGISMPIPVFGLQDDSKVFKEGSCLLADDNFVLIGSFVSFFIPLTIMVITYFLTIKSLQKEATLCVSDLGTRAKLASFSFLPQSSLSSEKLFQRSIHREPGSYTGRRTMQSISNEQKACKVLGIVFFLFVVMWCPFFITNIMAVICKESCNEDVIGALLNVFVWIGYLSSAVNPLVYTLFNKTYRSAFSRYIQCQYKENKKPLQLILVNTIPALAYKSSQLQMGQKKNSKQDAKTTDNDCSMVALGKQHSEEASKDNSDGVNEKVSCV
Description: The activation potency and efficacy at the 5-HT2A receptor were determined as previously described by [Luethi et al. (2018)]. In short, mouse embryonic fibroblasts (NIH-3T3 cells) stably transfected with the human 5-HT2A receptor were seeded in poly-D-lysine-coated 96 well plates at a density of 70,000 cells per 100 μL. Next, the cells were incubated in HEPES-Hank’s Balanced Salt Solution (HBSS) buffer (Gibco) for 1 h at 37 °C; the cells were then incubated with 100 μL of dye solution (fluorescence imaging plate reader [FLIPR] calcium 5 assay kit; Molecular Devices, Sunnyvale, CA, United States) per well for 1 h at 37 °C. The plate was then inserted into the FLIPR and 25 μL of the test compounds diluted in HEPES-HBSS buffer containing […] probenecid were added online. Increase of the fluorescence signal was measured and the activation potency (EC50) was calculated from the dose-response curves using nonlinear regression. The activation efficacy was calculated relative to 5-HT activity (defined as 100% activity).

h5-HT2C receptor = target: T4, h5-HT2C receptor (Homo sapiens, UniProt P28335); assay: Radioligand binding, 5-HT2C receptor ([3H]mesulergine)
T4 sequence (P28335 33-458): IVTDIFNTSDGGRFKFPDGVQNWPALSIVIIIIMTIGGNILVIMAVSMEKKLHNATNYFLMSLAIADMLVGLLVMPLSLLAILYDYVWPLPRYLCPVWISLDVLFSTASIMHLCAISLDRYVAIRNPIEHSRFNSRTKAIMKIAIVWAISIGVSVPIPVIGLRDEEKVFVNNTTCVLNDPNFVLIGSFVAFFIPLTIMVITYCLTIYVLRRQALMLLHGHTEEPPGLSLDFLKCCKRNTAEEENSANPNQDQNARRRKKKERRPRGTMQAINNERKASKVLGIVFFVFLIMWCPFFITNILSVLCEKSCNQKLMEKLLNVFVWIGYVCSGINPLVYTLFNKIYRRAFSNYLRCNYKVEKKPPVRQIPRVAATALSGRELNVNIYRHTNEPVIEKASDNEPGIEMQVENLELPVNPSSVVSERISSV

mTAAR1 = mTAAR1 (Mus musculus, UniProt Q923Y8); assay: Radioligand binding, mouse TAAR1 ([3H]RO5166017)
mTAAR1, sequence (Q923Y8 whole entry): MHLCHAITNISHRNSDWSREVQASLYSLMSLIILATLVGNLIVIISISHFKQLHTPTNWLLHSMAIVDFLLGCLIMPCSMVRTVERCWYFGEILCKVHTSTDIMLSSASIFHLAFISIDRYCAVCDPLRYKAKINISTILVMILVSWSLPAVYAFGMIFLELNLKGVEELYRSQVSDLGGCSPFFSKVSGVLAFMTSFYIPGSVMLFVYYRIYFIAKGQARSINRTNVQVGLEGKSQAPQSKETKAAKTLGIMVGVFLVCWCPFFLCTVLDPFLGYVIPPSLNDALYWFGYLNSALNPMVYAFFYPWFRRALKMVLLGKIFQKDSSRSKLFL

[1] = cited from earlier work
[2] = anecdotal, ref Shulgin and Shulgin, 1991

| SMILES | Ki (hα1A adrenergic receptor) [nM] | Ki (hNET) [nM] | Ki (rTAAR1) [nM] | EC50 (human 5-HT2B receptor) [nM] | Emax (human 5-HT2B receptor) [%] | EC50 (human 5-HT2A receptor) [nM] | Emax (human 5-HT2A receptor) [%] | Ki (h5-HT2C receptor) [nM] | Ki (mTAAR1) [nM] | duration of effects in humans [1, 2] [h] | psychoactive dose in humans [1, 2] [mg] | activity in humans ([1]; doses up to 300 mg) | fold increase in 5-HT2A activation potency over non-fluorinated counterpart Ψ-2C-O-2 (human 5-HT2A receptor) [fold] | type of agonism at the 5-HT2A receptor (human 5-HT2A receptor) | fold difference in 5-HT2B activation potency, amphetamine vs phenethylamine counterpart (human 5-HT2B receptor; Ψ-MEM vs Ψ-2C-O-2) [fold] |
| --- | --- | --- | --- | --- | --- | --- | --- | --- | --- | --- | --- | --- | --- | --- | --- |
| COc1cc(OC)c(CC(C)N)c(OC)c1 (stereo not shown) [TMA-6, 2,4,6-trimethoxyamphetamine] | > 8800 | > 8800 | 180 ± 20 | 150 ± 20 | 59 ± 3 | 70 ± 32 | 61 ± 12 | 1800 | 850 ± 20 | 12 to 16 | 25 to 50 | – | – | – | – |
| COc1cc(OC)c(CCN)c(OC)c1 [Ψ-2C-O-1, 2,4,6-trimethoxyphenethylamine] | > 8800 | > 8800 | 57 ± 12 | 330 ± 250 | 22 ± 8 | 110 ± 20 | 84 ± 13 | 1200 | 590 ± 20 | – | – | inactive | – | – | – |
| CCOc1cc(OC)c(CCN)c(OC)c1 [Ψ-2C-O-2, 2,6-dimethoxy-4-ethoxyphenethylamine] | 3300 | > 8800 | – | 2100 | 27 ± 8 | 99 ± 8 | 53 ± 4 | 1500 | 230 ± 20 | – | – | – | – | – | – |
| C=C(C)COc1cc(OC)c(CCN)c(OC)c1 [Ψ-2C-O-3, 2,6-dimethoxy-4-methallyloxyphenethylamine] | 990 ± 20 | > 8800 | 6.4 ± 1.1 | 310 ± 240 | 17 ± 4 | 200 ± 20 | 23 ± 10 | 210 ± 140 | 120 ± 20 | – | – | – | – | – | – |
| C=CCOc1cc(OC)c(CCN)c(OC)c1 [Ψ-2C-O-16, 4-allyloxy-2,6-dimethoxyphenethylamine] | 670 ± 60 | > 8800 | 12 | 91 ± 31 | 27 ± 8 | 39 ± 19 | 49 ± 20 | 500 ± 230 | 150 ± 20 | – | – | – | – | – | – |
| COc1cc(OCCF)cc(OC)c1CCN [Ψ-2C-O-21, 2,6-dimethoxy-4-(2-fluoroethoxy)phenethylamine] | 4600 | > 8800 | 19 ± 1 | > 10000 | – | 32 ± 2 | 55 ± 14 | 3500 | 320 ± 30 | – | – | – | 3 | – | – |
| COc1cc(OCC(F)F)cc(OC)c1CCN [Ψ-2C-O-21.5, 4-(2,2-difluoroethoxy)-2,6-dimethoxyphenethylamine] | 2000 | > 8800 | 14 ± 3 | > 10000 | – | 740 ± 80 | 31 ± 5 | 2800 | 220 ± 40 | – | – | – | – | – | – |
| COc1cc(OCC(F)(F)F)cc(OC)c1CCN [Ψ-2C-O-22, 2,6-dimethoxy-4-(2,2,2-trifluoroethoxy)phenethylamine] | 2000 | > 8800 | 21 ± 2 | > 10000 | – | 3400 | 41 ± 8 | 2200 | 210 ± 40 | – | – | – | – | – | – |
| COc1cc(OCc2ccccc2)cc(OC)c1CCN [Ψ-2C-O-27, 4-benzyloxy-2,6-dimethoxyphenethylamine] | 3600 | 6200 | 3.1 ± 0.2 | > 10000 | – | 410 ± 160 | 42 ± 8 | 110 ± 10 | 610 ± 6 | – | – | – | – | – | – |
| COc1cc(OC(F)F)cc(OC)c1CC(C)N (stereo not shown) [Ψ-DODFMO, 4-(2,2-difluoromethoxy)-2,6-dimethoxyamphetamine] | 5900 | > 8800 | 140 ± 40 | 160 ± 50 | 58 ± 23 | 300 ± 100 | 54 ± 4 | 1800 | 860 ± 40 | – | – | – | – | – | – |
| C=CCOc1cc(OC)c(CC(C)N)c(OC)c1 (stereo not shown) [Ψ-MALM, 4-allyloxy-2,6-dimethoxyamphetamine] | 1400 | > 8800 | 58 ± 11 | 55 ± 24 | 69 ± 19 | 180 ± 70 | 66 ± 6 | 780 ± 330 | 270 ± 50 | – | – | – | – | partial agonists | – |
| COc1cc(OCc2ccccc2)cc(OC)c1CC(C)N (stereo not shown) [Ψ-MBnM, 4-benzyloxy-2,6-dimethoxyamphetamine] | 5800 | 7100 | 6.1 ± 0.7 | > 10000 | – | 430 ± 150 | 39 ± 6 | 270 ± 50 | 190 ± 10 | – | – | – | – | – | – |
| COc1cc(OCC(F)F)cc(OC)c1CC(C)N (stereo not shown) [Ψ-MDFEM, 4-(2,2-difluoroethoxy)-2,6-dimethoxyamphetamine] | 3900 | > 8800 | 66 ± 13 | > 10000 | – | 1100 | 34 ± 7 | 9500 | 500 ± 70 | – | – | – | – | – | – |
| CCOc1cc(OC)c(CC(C)N)c(OC)c1 (stereo not shown) [Ψ-MEM, 2,6-dimethoxy-4-ethoxyamphetamine] | 6010 | > 8800 | 110 ± 10 | 260 ± 160 | 28 ± 11 | 650 ± 210 | 54 ± 5 | 5100 | 400 ± 20 | – | – | – | – | – | 8 |
| COc1cc(OCCF)cc(OC)c1CC(C)N (stereo not shown) [Ψ-MFEM, 2,6-dimethoxy-4-(2-fluoroethoxy)amphetamine] | 6700 | > 8800 | 52 ± 18 | > 10000 | – | 1300 | 37 ± 2 | 10000 | 560 ± 10 | – | – | – | – | – | – |
| C=C(C)COc1cc(OC)c(CC(C)N)c(OC)c1 (stereo not shown) [Ψ-MMALM, 2,6-dimethoxy-4-methallyloxyamphetamine] | 2200 | > 8800 | 32 ± 5 | 93 ± 26 | 33 ± 11 | 58 ± 28 | 68 ± 9 | 290 ± 90 | 250 ± 50 | – | – | – | – | partial agonists | – |
| COc1cc(OCC(F)(F)F)cc(OC)c1CC(C)N (stereo not shown) [Ψ-MTFEM, 2,6-dimethoxy-4-(2,2,2-trifluoroethoxy)amphetamine] | 6100 | > 8800 | 110 ± 40 | > 10000 | – | 1100 | 33 ± 6 | 5500 | 410 ± 80 | – | – | – | – | – | – |
